Reference: patent US20080139545A1, “FORMULATION TO TREAT EAR INFECTION” (priority 2006, published 2008)
Entries after “also recorded” stand apart in the source; their conditions may differ. Where two headings read alike, the source gives them in different places.

Key:
[1] = conventional treatments of the same patients before NAC (case histories); assay type: in vivo, human; conditions: for response of effusion, tube plugging and otorrhea to conventional treatment: patient one (Example 4), 2002-2005, topical or oral
[2] = as above; assay type: in vivo, human
Description: They developed vertigo and bilateral otalgia in 1997, and presented to our practice. Given their prior history, they underwent an extensive workup from the outset. […] They underwent right-sided T tube placement for chronic Eustachian tube dysfunction in October 1997, with marked improvement of their pressure and fullness. However, they developed intermittent otorrhea, for which they received topical Tobradex. In November, the tube plugged completely, and they underwent tube replacement. Findings were notable for thick mucus filling the middle ear space. […] They underwent a right sided mastoidectomy with tube exchange in December 1997, with intraoperative findings notable for an inflamed mastoid cavity with several areas of cholesterol granuloma, as well as complete aditus blockade.
They continued to have thick, “taupe”-colored otorrhea after surgery. Considering their failure to respond to therapy, the differential was widened. Their evaluations for immunodeficiency and autoimmune pathology were negative. They underwent multiple TT placements and exchanges, as well as a negative culture and a wide laser tympanotomy in June 1998. The tympanotomy afforded them a brief hiatus from drainage from July through August. […] They also required office debridements every week or alternate week until they underwent a revision tympanomastoidectomy in October 1998. Intraoperative findings were notable for a clear mastoid, but a middle ear full of thick mucopurulence and edematous mucosa. The KTP laser was used to widen the tympanotomy and to ablate the middle ear mucosa to the Eustachian tube. Intraoperative cultures returned negative. Their course improved considerably, with only mild intermittent infections through July 1999. However, they were then diagnosed with breast cancer, which was treated with a modified radical mastectomy and adjuvant chemoradiation.
As they were completing their chemotherapy, they redeveloped the same otorrhea, which was treated with continuous, suppressive Floxin drops as well as frequent office debridements. They developed a mastoid abscess in March 2000, for which they underwent a repeat revision mastoidectomy. Preoperative CT imaging raised the concern for osteomyelitis. Intraoperative findings were notable for purulence in the mastoid and subcutaneous tissues, which were debrided widely. Intraoperative cultures returned penicillin-resistant, but otherwise pan-sensitive Staphylococcus aureus. Their otorrhea resumed in April after a brief hiatus. […] They continued to require office debridements on alternate weeks.
They had brief episodes of otorrhea in November 2001, and February and May 2002, which were treated easily with ototopicals.
Their otorrhea restarted in February 2003. They were begun on alternating courses of topical ciprofloxacin and Tobradex, oral azithromycin and metronidazole, as well as office debridements every week or alternating week. […] An infectious disease consultation was obtained, and they were started on high dose Septra per recommendations. […] A followup culture in October was negative.
Given their continued otorrhea, they underwent a revision modified radical tympanomastoidectomy in November 2004, with intraoperative findings notable for a large cholesterol granuloma extending from the mastoid tip to the retrosigmoid region towards the occiput. They had frank purulence in the epi-, pro-, and hypotympanum. The middle ear was packed with Zyvox-soaked Gelfoam. […] After a brief respite, their otorrhea restarted the following month. […] Multiple cultures returned negative except for occasional colonies of Candida albicans.
patient four is a diabetic with a history of frequent ear infections as a child. They developed ear plugging in May 2004, and was treated with oral antibiotics for otitis media. […] However, they developed chronic otorrhea after tube placement, which persisted despite multiple courses of oral and topical antibiotics. The TT was removed in September, after which they developed a chronic serous effusion. […]

[3] = off-label treatment of patients with Ciprodex augmented with 2% NAC (case reports); assay type: in vivo, human; conditions: patient two (Example 1), oral, for presumed fungal superinfection
Description: These patients responded uniformly to the compositions of the present invention. All treated ears ceased to drain within 1-2 weeks of adequate treatment. No ototoxicity was documented by either patient report or audiometry.
Given their multiple treatment failures, they were started at this point on Ciprodex augmented with 2% NAC. Verbal informed consent was obtained prior to starting treatment, and they were continued on oral Zyvox. […] They were given a fresh mixture of NAC with Ciprodex, and their otorrhea and middle ear fluid resolved one week later. […] They have been refrigerating the medication between uses, and hand warming the solution before application.
In November 2005, SG underwent a two week course of topical Ciprodex augmented with 2% NAC. Verbal informed consent was obtained prior to starting treatment.
At this point, BT was started on a two week course of topical Ciprodex augmented with 2% NAC. Verbal informed consent was obtained prior to starting treatment.
In November 2005, DL was started on a two week course of topical Ciprodex augmented with 2% NAC. Verbal informed consent was obtained prior to starting treatment. […] The same solution was insufflated into the ear after an aggressive debridement, and they were started on another two week course. The patient traveled abroad for one month, and returned in January 2006. […]

Streptococcus pneumoniae = conditions: concentrations of 0.003% to 0.8%; cited from earlier work
[4] = applied topically to children at a concentration of 2%; cited from earlier work
[5] = test system: cochlear outer hair cell (OHC); conditions: multiple studies; cited from earlier work
Pseudomonas cultures = conditions: cited from earlier work
Moraxella catarrhalis = conditions: concentrations of 0.003% to 0.8%; cited from earlier work
Escherichia coli = conditions: concentrations of 0.003% to 0.8%; cited from earlier work
polymicrobial cultures = conditions: concentrations of 0.003% to 0.8%; cited from earlier work
[6] = administered via transtympanic iontopheresis; cited from earlier work
[7] = test system: Staphylococcus epidermidis; conditions: concentrations of 0.003% to 0.8%; cited from earlier work
[8] = high first pass metabolism through the liver; cited from earlier work
Bacillus species = conditions: concentrations of 0.003% to 0.8%; cited from earlier work
Klebsiella pneumoniae = conditions: concentrations of 0.003% to 0.8%; cited from earlier work
[9] = test system: cochlear outer hair cell (OHC); conditions: co-administration with NAC at 0.017%; cited from earlier work
[10] = topical NAC, rabbit model of otitis media; cited from earlier work
[11] = NAC at a concentration of 0.1%; cited from earlier work
Haemophilus influenzae = conditions: concentrations of 0.003% to 0.8%; cited from earlier work
[12] = topical NAC, rat model of otitis media; cited from earlier work
[13] = patient two (Example 1), 1997-2005, topical or oral as stated

CC1COc2c(N3CCN(C)CC3)c(F)cc3c(=O)c(C(=O)O)cn1c23 (racemic) [Floxin, (±)-9-fluoro-2,3-dihydro-3-methyl-10-(4-methyl-1-piperazinyl)-7-oxo-7H-pyrido[1,3,3-de]-1,4-benzoxazine-6-carboxylic acid]
response of effusion, tube plugging and otorrhea to conventional treatment [1]: continued essentially unchanged

CC[C@H]1OC(=O)[C@H](C)[C@@H](O[C@H]2C[C@@](C)(OC)[C@@H](O)[C@H](C)O2)[C@H](C)[C@@H](O[C@@H]2O[C@H](C)C[C@H](N(C)C)[C@H]2O)[C@](C)(OC)C[C@@H](C)C(=O)[C@H](C)[C@@H](O)[C@]1(C)O [Biaxin, 6-O-methylerythromycin]
response of otorrhea to conventional treatment [2, 13]: failed to respond

Cc1ncc([N+](=O)[O-])n1CCO [Flagyl, 2-Methyl-5-nitro-imidazole-1-ethanol]
response of otorrhea to conventional treatment ([2]; patient four (Example 2), 2004-2005, topical or oral as stated): otorrhea persisted
response of otorrhea to conventional treatment [2, 13]: symptoms continued essentially unabated

CN(C/C=C/C#CC(C)(C)C)Cc1cccc2ccccc12.Cl [Lamisil, (E)-N-(6,6-dimethyl-2-hepten-4-ynyl)-N-methyl-1-naphthalenemethanamine hydrochloride]
tolerability [3]: could tolerate only three days of treatment secondary to gastrointestinal side effects

CC(=O)N[C@@H](CS)C(=O)O [NAC, N-acetylcysteine]
adherence of Streptococcus pneumoniae to human oropharyngeal cells (Streptococcus pneumoniae): reduces the adherence
TT reinsertion, recurrence of otitis media, need for physician visits [4]: decreases
tympanostomy tube (TT) longevity [4]: increases
protection against oxidative OHC damage from cisplatin or aminoglycosides [5]: protect against oxidative OHC damage
killing of Pseudomonas cultures (Pseudomonas cultures; NAC administered alone, concentration of only 0.002%): 95%
decrease of the efficacy of aminoglycoside antibiotics (Pseudomonas cultures; combination with aminoglycoside antibiotics): 2-16 fold
interaction with ticarcillin and carbenicillin (Pseudomonas cultures; combination with ticarcillin and carbenicillin): strong synergy
adherence of Moraxella catarrhalis to human pharyngeal cells (Moraxella catarrhalis): reduces the adherence
adherence of Escherichia coli to polystyrene (Escherichia coli): reduces the adherence
adherence of polymicrobial cultures to stainless steel and tracheoesophageal puncture prostheses (polymicrobial cultures): reduces the adherence
clearance of thick middle ear effusions [6]: may speed the clearance
adherence of Staphylococcus epidermidis to polystyrene [7]: reduces the adherence
oral bioavailability [8]: 5-10%
adherence of Bacillus species to stainless steel (Bacillus species): reduces the adherence
adherence of Klebsiella pneumoniae to polystyrene (Klebsiella pneumoniae): reduces the adherence
hydrogen peroxide-mediated damage to OHCs [9]: completely prevented
fibroblast proliferation, collagen synthesis, and inflammatory markers [10]: Marked reductions
tympanic membrane scarring [10]: effectively reduced this scarring
viscosity reductions [11]: 21-39%
adherence of Haemophilus influenzae to mucus and human oropharyngeal cells (Haemophilus influenzae): reduces the adherence
fibroblast proliferation, collagen synthesis, and inflammatory markers [12]: Marked reductions
tympanic membrane scarring [12]: effectively reduced this scarring

CN[C@@H](C)[C@@H](O)c1ccccc1 [Sudafed]
response of effusion, tube plugging and otorrhea to conventional treatment [1]: effusion and plugging continued

CC[C@H]1OC(=O)[C@H](C)[C@@H](O[C@H]2C[C@@](C)(OC)[C@@H](O)[C@H](C)O2)[C@H](C)[C@@H](O[C@@H]2O[C@H](C)C[C@H](N(C)C)[C@H]2O)[C@](C)(O)C[C@@H](C)CN(C)[C@H](C)[C@@H](O)[C@]1(C)O [azithromycin]
response of otorrhea to conventional treatment [2, 13]: symptoms continued essentially unabated
response of effusion, tube plugging and otorrhea to conventional treatment [1]: effusion and plugging continued; also recorded: continued essentially unchanged

O=C(N[C@H](CO)[C@H](O)c1ccc([N+](=O)[O-])cc1)C(Cl)Cl [chloramphenicol]
response of otorrhea to conventional treatment [2, 13]: failed to respond

O=C(O)c1cn(C2CC2)c2cc(N3CCNCC3)c(F)cc2c1=O [ciprofloxacin drops, 1-cyclopropyl-6-fluoro-1,4-dihydro-4-oxo-7-(1-piperazinyl)-3-quinolinecarboxylic acid]
response of otorrhea to conventional treatment [2, 13]: continued to drain through December; also recorded: failed to respond; also recorded: otorrhea resolved
response of otorrhea to conventional treatment ([2]; patient two (Example 1), 1997-2005, topical or oral as stated, listed as ciprofloxacin): symptoms continued essentially unabated
response of effusion, tube plugging and otorrhea to conventional treatment [1]: effusion and plugging continued; also recorded: tube plugging and otorrhea continued
response of otorrhea/effusion to conventional treatment ([1]; patient three (Example 3), 2005, topical or oral as stated): developed recurrent otorrhea on the right side

CN[C@H](CC(C)C)C(=O)N[C@H]1C(=O)N[C@@H](CC(N)=O)C(=O)N[C@H]2C(=O)N[C@H]3C(=O)N[C@H](C(=O)N[C@H](C(=O)O)c4cc(O)cc(O)c4-c4cc3ccc4O)[C@H](O)c3ccc(c(Cl)c3)Oc3cc2cc(c3O[C@@H]2O[C@H](CO)[C@@H](O)[C@H](O)[C@H]2O[C@H]2C[C@](C)(N)[C@H](O)[C@H](C)O2)Oc2ccc(cc2Cl)[C@H]1O [vancomycin]
response of otorrhea to conventional treatment [2, 13]: some improvement
